# From US10770169B2, “Method of providing a treatment to a subject based on a dynamic pathway map” (THE REGENTS OF THE UNIVERSITY OF CALIFORNIA, priority 2010, dated 2020)
# Structures can show the parent of a compound that is named as a salt. Where two headings read alike, the source gives them in different places.
# System: panel of 55 breast cancer cell lines
# Assay: Cell growth inhibition assay (Cell Titer Glo, 72 h, 9 doses; GI50, TGI, LC50)
# Type: cell-based, human
structure (smiles),measurement,setting,value
CCCCCN(C)CCC(O)(P(=O)(O)O)P(=O)(O)O [Ibandronate sodium salt],GI50,"Homo sapiens, AU565, AU565 cell line, censored GI50 values, read-out: GI50 (converted)",182 µM
same,GI50,"Homo sapiens, AU565, cell line AU565, read-out: GI50 (converted)",182 µM
same,GI50,"Homo sapiens, BT-20, BT20 cell line, censored GI50 values, read-out: GI50 (converted)",20.4 µM
same,GI50,"Homo sapiens, BT-20, cell line BT20, read-out: GI50 (converted)",20.4 µM
same,GI50,"Homo sapiens, BT-474, BT474 cell line, censored GI50 values, read-out: GI50 (converted)",105 µM
same,GI50,"Homo sapiens, BT-483, BT483 cell line, censored GI50 values, read-out: GI50 (converted)",57.5 µM
same,GI50,"Homo sapiens, CAMA-1, CAMA1 cell line, censored GI50 values, read-out: GI50 (converted)",162 µM
same,GI50,"Homo sapiens, HCC38, HCC38 cell line, censored GI50 values, read-out: GI50 (converted)",57.5 µM
same,GI50,"Homo sapiens, HCC70, HCC70 cell line, censored GI50 values, read-out: GI50 (converted)",69.2 µM
same,GI50,"Homo sapiens, HCC1143, HCC1143 cell line, censored GI50 values, read-out: GI50 (converted)",43.7 µM
same,GI50,"Homo sapiens, HCC1187, HCC1187 cell line, censored GI50 values, read-out: GI50 (converted)",170 µM
same,GI50,"Homo sapiens, HCC1395, HCC1395 cell line, censored GI50 values, read-out: GI50 (converted)",7.41 µM
same,GI50,"Homo sapiens, HCC1419, HCC1419 cell line, censored GI50 values, read-out: GI50 (converted)",7.59 µM
same,GI50,"Homo sapiens, HCC1428, HCC1428 cell line, censored GI50 values, read-out: GI50 (converted)",129 µM
same,GI50,"Homo sapiens, HCC1500, HCC1500 cell line, censored GI50 values, read-out: GI50 (converted)",38 µM
same,GI50,"Homo sapiens, HCC1806, HCC1806 cell line, censored GI50 values, read-out: GI50 (converted)",33.1 µM
same,GI50,"Homo sapiens, HCC1937, HCC1937 cell line, censored GI50 values, read-out: GI50 (converted)",40.7 µM
same,GI50,"Homo sapiens, HCC1954, HCC1954 cell line, censored GI50 values, read-out: GI50 (converted)",55 µM
same,GI50,"Homo sapiens, HCC2185 cell line, censored GI50 values, read-out: GI50 (converted)",15.1 µM
same,GI50,"Homo sapiens, HCC3153 cell line, censored GI50 values, read-out: GI50 (converted)",79.4 µM
same,GI50,"Homo sapiens, MDA-MB-134-VI, MDAMB134VI cell line, censored GI50 values, read-out: GI50 (converted)",69.2 µM
same,GI50,"Homo sapiens, MDA-MB-175-VII, MDAMB175VII cell line, censored GI50 values, read-out: GI50 (converted)",33.9 µM
same,GI50,"Homo sapiens, MDA-MB-231, MDAMB231 cell line, censored GI50 values, read-out: GI50 (converted)",74.1 µM
same,GI50,"Homo sapiens, MDA-MB-415, MDAMB415 cell line, censored GI50 values, read-out: GI50 (converted)",49 µM
same,GI50,"Homo sapiens, MDA-MB-453, MDAMB453 cell line, censored GI50 values, read-out: GI50 (converted)",110 µM
same,GI50,"Homo sapiens, MDA-MB-468, MDAMB468 cell line, censored GI50 values, read-out: GI50 (converted)",93.3 µM
same,GI50,"Homo sapiens, SK-BR-3, SKBR3 cell line, censored GI50 values, read-out: GI50 (converted)",89.1 µM
same,GI50,"Homo sapiens, SUM52PE, SUM52PE cell line, censored GI50 values, read-out: GI50 (converted)",35.5 µM
same,GI50,"Homo sapiens, SUM149PT, SUM149PT cell line, censored GI50 values, read-out: GI50 (converted)",174 µM
same,GI50,"Homo sapiens, SUM225CWN, SUM225CWN cell line, censored GI50 values, read-out: GI50 (converted)",501 µM
same,GI50,"Homo sapiens, SUM1315MO2, SUM1315MO2 cell line, censored GI50 values, read-out: GI50 (converted)",50.1 µM
same,GI50,"Homo sapiens, SUM-159-PT, SUM159PT cell line, censored GI50 values, read-out: GI50 (converted)",42.7 µM
same,GI50,"Homo sapiens, T47D, T47D cell line, censored GI50 values, read-out: GI50 (converted)",34.7 µM
same,GI50,"Homo sapiens, UACC-812, UACC812 cell line, censored GI50 values, read-out: GI50 (converted)",155 µM
same,GI50,"Homo sapiens, ZR-75-1, ZR751 cell line, censored GI50 values, read-out: GI50 (converted)",69.2 µM
same,GI50,"Homo sapiens, ZR-75B, ZR75B cell line, censored GI50 values, read-out: GI50 (converted)",141 µM
Oc1cc(-c2nc(-c3ccccc3)[nH]c2-c2ccncc2)ccc1Cl [L-779450],GI50,"BT474 cell line, censored GI50 values, value is the negative log10 of mol/L",4.73
same,GI50,"BT483 cell line, censored GI50 values, value is the negative log10 of mol/L",4.84
same,GI50,"HCC38 cell line, censored GI50 values, value is the negative log10 of mol/L",4.77
same,GI50,"HCC1187 cell line, censored GI50 values, value is the negative log10 of mol/L",5.07
same,GI50,"HCC1395 cell line, censored GI50 values, value is the negative log10 of mol/L",4.54
same,GI50,"HCC1419 cell line, censored GI50 values, value is the negative log10 of mol/L",4.78
same,GI50,"HCC1428 cell line, censored GI50 values, value is the negative log10 of mol/L",4.80
same,GI50,"HCC1937 cell line, censored GI50 values, value is the negative log10 of mol/L",4.84
same,GI50,"MDAMB134VI cell line, censored GI50 values, value is the negative log10 of mol/L",4.60
same,GI50,"MDAMB175VII cell line, censored GI50 values, value is the negative log10 of mol/L",5.05
same,GI50,"MDAMB361 cell line, censored GI50 values, value is the negative log10 of mol/L",5.04
same,GI50,"MDAMB436 cell line, censored GI50 values, value is the negative log10 of mol/L",5.66
same,GI50,"MDAMB468 cell line, censored GI50 values, value is the negative log10 of mol/L",4.90
same,GI50,"SKBR3 cell line, censored GI50 values, value is the negative log10 of mol/L",4.66
same,GI50,"SUM52PE cell line, censored GI50 values, value is the negative log10 of mol/L",5.13
same,GI50,"SUM149PT cell line, censored GI50 values, value is the negative log10 of mol/L",5.13
same,GI50,"SUM159PT cell line, censored GI50 values, value is the negative log10 of mol/L",4.70
same,GI50,"UACC812 cell line, censored GI50 values, value is the negative log10 of mol/L",4.97
same,GI50,"ZR75B cell line, censored GI50 values, value is the negative log10 of mol/L",4.51
same,GI50,"cell line AU565, value is the negative log10 of mol/L",4.48
same,GI50,"cell line BT20, value is the negative log10 of mol/L",4.44
same,GI50,"cell line BT474, value is the negative log10 of mol/L",4.73
same,GI50,"cell line BT483, value is the negative log10 of mol/L",4.84
same,GI50,"cell line CAMA1, value is the negative log10 of mol/L",4.44
same,GI50,"cell line HCC38, value is the negative log10 of mol/L",4.77
same,GI50,"cell line HCC70, value is the negative log10 of mol/L",4.50
same,GI50,"cell line HCC1143, value is the negative log10 of mol/L",4.39
same,GI50,"cell line HCC1187, value is the negative log10 of mol/L",5.07
same,GI50,"cell line HCC1395, value is the negative log10 of mol/L",4.54
same,GI50,"cell line HCC1419, value is the negative log10 of mol/L",4.78
same,GI50,"cell line HCC1428, value is the negative log10 of mol/L",4.80
same,GI50,"cell line HCC1500, value is the negative log10 of mol/L",4.48
same,GI50,"cell line HCC1937, value is the negative log10 of mol/L",4.84
same,GI50,"cell line HCC1954, value is the negative log10 of mol/L",4.48
same,GI50,"cell line HCC2185, value is the negative log10 of mol/L",4.42
same,GI50,"cell line HCC3153, value is the negative log10 of mol/L",4.48
same,GI50,"cell line MCF7, value is the negative log10 of mol/L",4.48
same,GI50,"cell line MDAMB134V, value is the negative log10 of mol/L",4.60
same,GI50,"cell line MDAMB175V, value is the negative log10 of mol/L",5.05
same,GI50,"cell line MDAMB231, value is the negative log10 of mol/L",4.49
same,GI50,"cell line MDAMB361, value is the negative log10 of mol/L",5.04
same,GI50,"cell line MDAMB436, value is the negative log10 of mol/L",5.66
same,GI50,"cell line MDAMB453, value is the negative log10 of mol/L",4.48
same,GI50,"cell line MDAMB468, value is the negative log10 of mol/L",4.90
same,GI50,"cell line SKBR3, value is the negative log10 of mol/L",4.66
same,GI50,"cell line SUM52PE, value is the negative log10 of mol/L",5.13
same,GI50,"cell line SUM149PT, value is the negative log10 of mol/L",5.13
same,GI50,"cell line SUM159PT, value is the negative log10 of mol/L",4.70
same,GI50,"cell line SUM1315MO, value is the negative log10 of mol/L",4.62
same,GI50,"cell line T47D, value is the negative log10 of mol/L",4.48
same,GI50,"cell line UACC812, value is the negative log10 of mol/L",4.97
same,GI50,"cell line ZR75B, value is the negative log10 of mol/L",4.51
same,GI50,"cell line ZR751, value is the negative log10 of mol/L",4.53
